The subject of assay [1] is MIA PaCa-2 or SW1990 pancreatic cancer cells. As to the kind of experiment: Colony formation assay, SOS1 inhibitor combined with targeted agents. In kind it is cell-based, human. As to conditions: 7 days of drug treatment, crystal violet absorbance at 590 nm; combined with one or more of the agents listed. On the procedure: Compound 1, 2, 3, 3a, 3b, 4, 4a, 4b, 5, 6, 6a, 6b and 7 were tested for inhibition of colony formation potential in combination with one or more of the following agents in MIA PaCa-2 or SW1990 pancreatic cancer cells: • EGFR inhibitor: Afatinib, KRAS-G12C inhibitor: AMG 510, KRAS-G12C inhibitor: MRTX849, KRAS-G12D inhibitor: MRTX1133, ERK1/2 inhibitor: LY3214996 and BVD-523, BRAF inhibitor: Encorafenib, pan-RAF inhibitor: LXH254, PRMT5 inhibitor: compound 24 of WO 2019116302, Type I PRMT inhibitor: GSK3368715, PI3K inhibitor: BYL719, FGFR inhibitor: Nintedanib, CDK4/6 inhibitor: Abemaciclib, and other chemotherapeutic agent: Gemcitabine.
Colony formation assay: MIA PaCa-2 cells or SW1990 cells were seeded at 500 cells per well or 1500 cells/well, respectively in 48 well tissue culture plate and cells were allowed to settle overnight (16 to 20 h). On the following day, cells were treated with various concentrations of targeted agents to generate IC50 with or without increasing concentrations of SOS1 inhibitor (as depicted in the figures), and the assay plates were incubated under normal cell culture conditions. After 7 days of drug treatment, media was removed from each well and plates were washed with PBS. Cell colonies were stained with crystal violet solution for 2-5 min. Plate was then washed carefully under tap water and air dried. For quantitation, 200 μL destaining solution containing 10% Glacial acetic acid was added to each well and stained colonies were allowed to solubilize for 20-30 min on plate shaker. After solubilization, absorbance of the extracted stain was recorded in BioTek Synergy Neo U plate reader at 590 nm. Absorbance values were directly proportional to colony growth.

Assay [2] relates to MIA PaCa-2 human pancreatic cancer xenograft. Nature of the assay: In vivo efficacy, Compound 1 or 4b combined with AMG 510, xenograft. Set-up: species or system nude mice. To be noted: single agent; for tumor growth inhibition: 30 mg/kg b.i.d.
For assay [3] the test system is unchanged. As to the kind of experiment: In vivo efficacy, Compound 4b combined with Afatinib or Compound 24 of WO 2019116302, xenograft. The arrangement: species or system nude mice. To be noted: single agent: Compound 4b 15 mg/kg b.i.d.; Afatinib 12.5 mg/kg q.d.; Compound 24 of WO 2019116302 1.0 mg/kg b.i.d.
Assay [4] shares this test system. Nature of the assay: In vivo efficacy, Compound 7 combined with AMG 510, xenograft. Set-up: species or system nude mice. As to conditions: single agent.
Description: MIA PaCa-2 tumor fragments were implanted subcutaneously in the right flank region of nude mice. Tumor-bearing mice were randomized once the tumors reached an average volume of ˜155-164 mm^3 (tumor volume range 66-298 mm^3).
The test system of the next assay is MIA PaCa-2 xenograft. Nature of the assay: In vivo efficacy, Compound 5 combined with Compound 24 of WO 2019116302, xenograft. Set-up: species or system nude mice. To be noted: single agent: Compound 5 50 mg/kg b.i.d.; Compound 24 of WO 2019116302 dose not given. On the procedure:
Compound 5 was tested in combination with Compound 24 of WO 2019116302 in vivo in MIA PaCa-2 xenograft model in nude mice.
20×10^6 MIA PaCa-2 cells were injected subcutaneously in the presence of PBS and Matrigel in 1:1 ratio in nude mice.

For assay [5], the system named is MIA PaCa-2 human pancreatic cancer xenograft. As to the kind of experiment: In vivo efficacy, Compound 7 combined with LXH254, xenograft. The arrangement: species or system nude mice. As to conditions: single agent: Compound 7 5 mg/kg q.d.; LXH254 50 mg/kg b.i.d.
The test system is the same in assay [6]. Nature of the assay: In vivo efficacy, Compound 7 combined with Afatinib, Compound 24 of WO 2019116302 or Ulixertinib, xenograft. Set-up: species or system nude mice. As to conditions: single agent, Compound 7 15 mg/kg b.i.d.

The values that follow come from US20240366608A1, “PHARMACEUTICAL COMBINATIONS OF SOS1 INHIBITORS FOR TREATING AND/OR PREVENTING CANCER” (Lupin Limited, priority 2021, published 2024).

Regarding `COC1(C)C(=O)N(C)c2cc3c(N[C@H](C)c4cccc(C(F)(F)C(C)(C)O)c4F)nc(C)nc3cc21` (mixture of isomers) [Compound 4, (R&S)-4-(((R)-1-(3-(1,1-difluoro-2-hydroxy-2-methylpropyl)-2-fluorophenyl)ethyl)amino)-8-methoxy-2,6,8-trimethyl-6,8-dihydro-7H-pyrrolo[2,3-g]quinazolin-7-one], the “potentiation of activity of combination agents leading to inhibition of colony forming activity” value in assay [1] is reported as “significant potentiation”.
As to `COC1(C)C(=O)N(C)c2cc3nc(C)nc(N[C@H](C)c4cccc(C(F)(F)C(C)(C)O)c4F)c3cc21` (mixture of isomers) [Compound 6, (R&S)-4-(((R)-1-(3-(1,1-difluoro-2-hydroxy-2-methylpropyl)-2-fluorophenyl)ethyl)amino)-6-methoxy-2,6,8-trimethyl-6,8-dihydro-7H-pyrrolo[3,2-g]quinazolin-7-one], in assay [1], the “potentiation of activity of combination agents leading to inhibition of colony forming activity” value is recorded as “significant potentiation”.
Still for that read-out and setting: the entry for `CO[C@]1(C)C(=O)N(C)c2cc3nc(C)nc(N[C@H](C)c4cccc(C(F)(F)C(C)(C)O)c4F)c3cc21` (racemic) [Compound 6a, (S/R)-4-(((R)-1-(3-(1,1-difluoro-2-hydroxy-2-methylpropyl)-2-fluorophenyl)ethyl)amino)-6-methoxy-2,6,8-trimethyl-6,8-dihydro-7H-pyrrolo[3,2-g]quinazolin-7-one] is “significant potentiation”.
Same read-out and setting: in the case of `Cc1nc(NC(C)c2cccc(C(F)(F)C(C)(C)O)c2)c2cc3c(cc2n1)C(C)(C)C(=O)N3C` (single isomer, unassigned) [Compound 2, (R/S)-4-((1-(3-(1,1-difluoro-2-hydroxy-2-methylpropyl)phenyl)ethyl)amino)-2,6,8,8-tetramethyl-6,8-dihydro-7H-pyrrolo[2,3-g]quinazolin-7-one] it was “significant potentiation”.
As to `Cc1nc(N[C@H](C)c2cccc(C(F)(F)C(C)(O)CO)c2F)c2cc3c(cc2n1)C(C)(C)C(=O)N3C` (single isomer, unassigned) [Compound 3a], the “potentiation of activity of combination agents leading to inhibition of colony forming activity” value in assay [1] is given as “significant potentiation”.
On the same count and under the same terms, in the case of `Cc1nc(N[C@H](C)c2cccc(C(F)(F)[C@@](C)(O)CO)c2F)c2cc3c(cc2n1)C(C)(C)C(=O)N3C` (single isomer, unassigned) [Compound 3b] it was “significant potentiation”; in that of `CO[C@]1(C)C(=O)N(C)c2cc3c(N[C@H](C)c4cccc(C(F)(F)C(C)(C)O)c4F)nc(C)nc3cc21` (single isomer, unassigned) [Compound 4a], “significant potentiation”.
Take `COC1(C)C(=O)N(C)c2cc3c(N[C@H](C)c4cccc(C(F)(F)C(C)(C)O)c4F)nc(C)nc3cc21` (single isomer, unassigned) [Compound 4b]: the figures for the tumor growth inhibition in assay [2] and in assay [3] were 65.71±7.41% and 47%, respectively. For the same compound, the “potentiation of activity of combination agents leading to inhibition of colony forming activity” value in assay [1] was “significant potentiation”.
Take `COC1(C)C(=O)N(C)c2cc3nc(C)nc(N[C@H](C)c4cccc(C(F)(F)C(C)(C)O)c4F)c3cc21` (single isomer, unassigned) [Compound 6b]: in assay [1], the “potentiation of activity of combination agents leading to inhibition of colony forming activity” value is listed as “significant potentiation”.
In the case of `C=CC(=O)N1CCN(c2nc(=O)n(-c3c(C)ccnc3C(C)C)c3nc(-c4c(O)cccc4F)c(F)cc23)[C@@H](C)C1` [AMG 510, 4-((S)-4-acryloyl-2-methylpiperazin-1-yl)-6-fluoro-7-(2-fluoro-6-hydroxyphenyl)-1-(2-isopropyl-4-methylpyridin-3-yl)pyrido[2,3-d]pyrimidin-2(1H)-one, reference compound], the tumor regression in assay [2] (AMG 510 10 mg/kg q.d.) was 39.43±15.22%. In assay [4] (AMG 510 3 mg/kg q.d.), the “inhibition in tumor growth” value was 77.69%.
Turning to `CN(C)C/C=C/C(=O)Nc1cc2c(Nc3ccc(F)c(Cl)c3)ncnc2cc1O[C@H]1CCOC1` [Afatinib, (S,E)-N-(4-((3-chloro-4-fluorophenyl)amino)-7-((tetrahydrofuran-3-yl)oxy)quinazolin-6-yl)-4-(dimethylamino)but-2-enamide], the tumor growth inhibition in assay [3] was determined as 38%.
With `Cc1nc(N[C@H](C)c2cccc(C(F)(F)C(C)(C)O)c2F)c2cc3c(cc2n1)C(C)(C)C(=O)N3C` [Compound 1, (R)-4-((1-(3-(1,1-Difluoro-2-hydroxy-2-methylpropyl)-2-fluorophenyl)ethyl)amino)-2,6,8,8-tetramethyl-6,8-dihydro-7H-pyrrolo[2,3-g]quinazolin-7-one], the tumor growth inhibition in assay [2] is on record as 63.82±8.32%. Besides, the “potentiation of activity of combination agents leading to inhibition of colony forming activity” value in assay [1] is recorded as “significant potentiation”.
`Cc1nc(N[C@H](C)c2cccc(C(F)(F)C(C)(O)CO)c2F)c2cc3c(cc2n1)C(C)(C)C(=O)N3C` (stereo partly drawn) [Compound 3, 4-(((R)-1-(3-((R&S)-1,1-Difluoro-2,3-dihydroxy-2-methylpropyl)-2-fluorophenyl)ethyl)amino)-2,6,8,8-tetramethyl-6,8-dihydro-7H-pyrrolo[2,3-g]quinazolin-7-one]: the “potentiation of activity of combination agents leading to inhibition of colony forming activity” value in assay [1] was “significant potentiation”.
Take `Cc1nc(N[C@H](C)c2cc(N)cc(C(F)(F)F)c2)c2cc(-c3ccc(=O)n(C)c3)c3c(c2n1)CCC3` [Compound 5, (R)-5-(4-((1-(3-amino-5-(trifluoromethyl)phenyl)ethyl)amino)-2-methyl-8,9-dihydro-7H-cyclopenta[h]quinazolin-6-yl)-1-methylpyridin-2(1H)-one]: the “potentiation of activity of combination agents leading to inhibition of colony forming activity” value in assay [1] was “significant potentiation”. Moreover, in the assay on MIA PaCa-2 xenograft, the tumor growth inhibition came to 59%.
With `CO[C@]1(C)C(=O)N(C)c2cc3c(N[C@H](C)c4cc(N)cc(C(F)(F)F)c4)nc(C)nc3cc21` [Compound 7, (S)-4-(((R)-1-(3-amino-5-(trifluoromethyl)phenyl)ethyl)amino)-8-methoxy-2,6,8-trimethyl-6,8-dihydro-7H-pyrrolo[2,3-g]quinazolin-7-one], in assay [1], the “potentiation of activity of combination agents leading to inhibition of colony forming activity” value is “significant potentiation”. Also, the “inhibition in tumor growth” value was 39.82% in assay [5]; 32.86% in assay [6]; 30.40% in assay [4] (Compound 7 5 mg/kg q.d.); 43.42% in assay [4] (Compound 7 10 mg/kg q.d.); 52.71% in assay [4] (Compound 7 20 mg/kg q.d.).
Regarding `Nc1nc2cc(CCC3=C[C@@H](n4ccc5c(N)ncnc54)[C@H](O)[C@@H]3O)cc(F)c2cc1Cl` [Compound 24 of WO 2019116302, (1S,2R,5R)-3-(2-(2-amino-3-chloro-5-fluoroquinolin-7-yl)ethyl)-5-(4-amino-7H-pyrrolo[2,3-d]pyrimidin-7-yl)cyclopent-3-ene-1,2-diol, reference compound], the values for the tumor growth inhibition (with MIA PaCa-2 xenograft; in assay [3]) were 73% and 52%, respectively.
As to `Cc1ccc(NC(=O)c2ccnc(C(F)(F)F)c2)cc1-c1cc(OCCO)nc(N2CCOCC2)c1` [LXH254, N-(3-(2-(2-hydroxyethoxy)-6-morpholinopyridin-4-yl)-4-methylphenyl)-2-(trifluoromethyl)isonicotinamide, reference compound], the “inhibition in tumor growth” value in assay [5] is listed as 34.96%.
